Data from the supplement of paper PMC11061612.

What was measured:
Carboplatin = compound: C1CC(C1)(C(=O)[O-])C(=O)[O-].N.N.[Pt+2] [Carboplatin]; conditions: max 10 µM
Procedure, shortened: (§1)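 Cancer cell lines were dosed for 72 hours (final DMSO typically 0.2%) after 24 hours at 37°C and 5% CO2 in 1536-well plates containing 7.5 μl DMEM/F12 or RPMI with 10% FBS. Viability came from CellTiter-Glo 2.0 luminescence, scaled between blank-well and DMSO-well means, and dose responses were fitted to a two-parameter logistic curve with a non-linear mixed effects model. The single-agent IC50 was obtained from this fit.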

AZD5363 = compound: C1CN(CCC1(C(=O)N[C@@H](CCO)C2=CC=C(C=C2)Cl)N)C3=NC=NC4=C3C=CN4 [AZD5363]; conditions: max 10 µM
Procedure, shortened: as §1

AZD1775 = compound: C=CCn1c(=O)c2cnc(Nc3ccc(N4CCN(C)CC4)cc3)nc2n1-c1cccc(C(C)(C)O)n1 [AZD1775]; conditions: max 3 µM
Procedure, shortened: as §1

Trametinib = compound: CC(=O)Nc1cccc(-n2c(=O)n(C3CC3)c(=O)c3c(Nc4ccc(I)cc4F)n(C)c(=O)c(C)c32)c1 [Trametinib]; conditions: max 1 µM
Procedure, shortened: as §1

Paclitaxel = compound: CC(=O)O[C@H]1C(=O)[C@@]2(C)[C@H]([C@H](OC(=O)c3ccccc3)[C@]3(O)C[C@H](OC(=O)[C@H](O)[C@@H](NC(=O)c4ccccc4)c4ccccc4)C(C)=C1C3(C)C)[C@]1(OC(C)=O)CO[C@@H]1C[C@@H]2O [Paclitaxel]; conditions: max 3 µM
Procedure, shortened: as §1

Palbociclib = compound: CC(=O)c1c(C)c2cnc(Nc3ccc(N4CCNCC4)cn3)nc2n(C2CCCC2)c1=O [Palbociclib]; conditions: max 10 µM
Procedure, shortened: as §1

AZD1390 = compound: CC(C)n1c(=O)n(C)c2cnc3cc(F)c(-c4ccc(OCCCN5CCCCC5)nc4)cc3c21 [AZD1390]; conditions: max 0.3 µM
Procedure, shortened: as §1

Venetoclax = compound: CC1(C)CCC(CN2CCN(c3ccc(C(=O)NS(=O)(=O)c4ccc(NCC5CCOCC5)c([N+](=O)[O-])c4)c(Oc4cnc5[nH]ccc5c4)c3)CC2)=C(c2ccc(Cl)cc2)C1 [Venetoclax]; conditions: max 1 µM
Procedure, shortened: as §1

Dasatinib = compound: CC1=C(C(=CC=C1)Cl)NC(=O)C2=CN=C(S2)NC3=CC(=NC(=N3)C)N4CCN(CC4)CCO [Dasatinib]; conditions: max 2 µM
Procedure, shortened: as §1

SG3199 = compound: CC1=CN2[C@@H](C1)C=NC3=CC(=C(C=C3C2=O)OC)OCCCCCOC4=C(C=C5C(=C4)N=C[C@@H]6CC(=CN6C5=O)C)OC [SG3199]; conditions: max 0.001 µM
Procedure, shortened: as §1

AZD2811 = compound: CCN(CCO)CCCOc1ccc2c(Nc3cc(CC(=O)Nc4cccc(F)c4)[nH]n3)ncnc2c1 [AZD2811]; conditions: max 1 µM
Procedure, shortened: as §1

SN-38 = compound: CCc1c2c(nc3ccc(O)cc13)-c1cc3c(c(=O)n1C2)COC(=O)[C@]3(O)CC [SN-38]; conditions: max 0.3 µM
Procedure, shortened: as §1

AZD0156 = compound: CN(C)CCCOc1ccc(-c2ccc3ncc4c(c3c2)n(C2CCOCC2)c(=O)n4C)cn1 [AZD0156]; conditions: max 3 µM
Procedure, shortened: as §1

AZD4320 = compound: CN(CC[C@H](CSC1=CC=CC=C1)NC2=C(C=C(C=C2)S(=O)(=O)NC(=O)C3=CC=C(C=C3)N4CCC(CC4)[C@H](C5=CC=CC=C5C6=CC=C(C=C6)Cl)O)S(=O)(=O)C(F)(F)F)CCO [AZD4320]; conditions: max 1 µM
Procedure, shortened: as §1

Alisertib = compound: COc1cc(Nc2ncc3c(n2)-c2ccc(Cl)cc2C(c2c(F)cccc2OC)=NC3)ccc1C(=O)O [Alisertib]; conditions: max 10 µM
Procedure, shortened: as §1

Etoposide = compound: COc1cc([C@@H]2c3cc4c(cc3[C@@H](O[C@@H]3O[C@@H]5CO[C@@H](C)O[C@H]5[C@H](O)[C@H]3O)[C@H]3COC(=O)[C@H]23)OCO4)cc(OC)c1O [Etoposide]; conditions: max 10 µM
Procedure, shortened: as §1

Gefitinib = compound: COc1cc2ncnc(Nc3ccc(F)c(Cl)c3)c2cc1OCCCN1CCOCC1 [Gefitinib]; conditions: max 10 µM
Procedure, shortened: as §1

Prexasertib = compound: COc1cccc(OCCCN)c1-c1cc(Nc2cnc(C#N)cn2)n[nH]1 [Prexasertib]; conditions: max 1 µM
Procedure, shortened: as §1

Doxorubicin = compound: COc1cccc2c1C(=O)c1c(O)c3c(c(O)c1C2=O)C[C@@](O)(C(=O)CO)C[C@@H]3O[C@H]1C[C@H](N)[C@H](O)[C@H](C)O1 [Doxorubicin]; conditions: max 1 µM
Procedure, shortened: as §1

AZD5153 = compound: COc1nnc2ccc(N3CCC(c4ccc(OCCN5CCN(C)C(=O)[C@H]5C)cc4)CC3)nn12 [AZD5153]; conditions: max 1 µM
Procedure, shortened: as §1

Lapatinib = compound: CS(=O)(=O)CCNCc1ccc(-c2ccc3ncnc(Nc4ccc(OCc5cccc(F)c5)c(Cl)c4)c3c2)o1 [Lapatinib]; conditions: max 10 µM
Procedure, shortened: as §1

AZD8186 = compound: C[C@@H](Nc1cc(F)cc(F)c1)c1cc(C(=O)N(C)C)cc2c(=O)cc(N3CCOCC3)oc12 [AZD8186]; conditions: max 10 µM
Procedure, shortened: as §1

Crizotinib = compound: C[C@@H](Oc1cc(-c2cnn(C3CCNCC3)c2)cnc1N)c1c(Cl)ccc(F)c1Cl [Crizotinib]; conditions: max 10 µM
Procedure, shortened: as §1

Savolitinib = compound: C[C@@H](c1ccc2nccn2c1)n1nnc2ncc(-c3cnn(C)c3)nc21 [Savolitinib]; conditions: max 1 µM
Procedure, shortened: as §1

AZD6738 = compound: C[C@@H]1COCCN1C2=NC(=NC(=C2)C3(CC3)[S@](=N)(=O)C)C4=C5C=CNC5=NC=C4 [AZD6738]; conditions: max 10 µM
Procedure, shortened: as §1

AZD5991 = compound: Cc1c2c(nn1C)CSCc1cc(n(C)n1)CSc1cc(c3ccccc3c1)OCCCc1c(C(=O)O)n(C)c3c-2c(Cl)ccc13 [AZD5991]; conditions: max 1 µM
Procedure, shortened: as §1

AZD7648 = compound: Cc1cc2ncnn2cc1Nc1ncc2c(n1)n(C1CCOCC1)c(=O)n2C [AZD7648]; conditions: max 10 µM
Procedure, shortened: as §1

Taselisib = compound: Cc1nc(-c2cn3c(n2)-c2ccc(-c4cnn(C(C)(C)C(N)=O)c4)cc2OCC3)n(C(C)C)n1 [Taselisib]; conditions: max 10 µM
Procedure, shortened: as §1

Selumetinib = compound: Cn1cnc2c(F)c(Nc3ccc(Br)cc3Cl)c(C(=O)NOCCO)cc21 [Selumetinib]; conditions: max 10 µM
Procedure, shortened: as §1

SRA737 = compound: N#Cc1cnc(Nc2cc(NC[C@H]3CNCCO3)c(C(F)(F)F)cn2)cn1 [SRA737]; conditions: max 10 µM
Procedure, shortened: as §1

MK-2206 = compound: NC1(c2ccc(-c3nc4ccn5c(=O)[nH]nc5c4cc3-c3ccccc3)cc2)CCC1 [MK-2206]; conditions: max 10 µM
Procedure, shortened: as §1

Gemcitabine = compound: Nc1ccn([C@@H]2O[C@H](CO)[C@@H](O)C2(F)F)c(=O)n1 [Gemcitabine]; conditions: max 0.3 µM
Procedure, shortened: as §1

[1] = compound: O=C(Nc1ccc2[nH]nc(-c3ccncc3)c2c1)[C@@H]1CCN(CC(=O)N2CCN(c3ccc(-c4ncccn4)cc3)CC2)C1; conditions: max 5 µM
Procedure, shortened: as §1

Olaparib = compound: O=C(c1cc(Cc2n[nH]c(=O)c3ccccc23)ccc1F)N1CCN(C(=O)C2CC2)CC1 [Olaparib]; conditions: max 10 µM
Procedure, shortened: as §1

5-Fluorouracil = compound: O=c1[nH]cc(F)c(=O)[nH]1 [5-Fluorouracil]; conditions: max 20 µM
Procedure, shortened: as §1

Cell Line | IC50, cell viability 72 h (Carboplatin) | IC50, cell viability 72 h (AZD5363) | IC50, cell viability 72 h (AZD1775) | IC50, cell viability 72 h (Trametinib) | IC50, cell viability 72 h (Paclitaxel) | IC50, cell viability 72 h (Palbociclib) | IC50, cell viability 72 h (AZD1390) | IC50, cell viability 72 h (Venetoclax) | IC50, cell viability 72 h (Dasatinib) | IC50, cell viability 72 h (SG3199) | IC50, cell viability 72 h (AZD2811) | IC50, cell viability 72 h (SN-38) | IC50, cell viability 72 h (AZD0156) | IC50, cell viability 72 h (AZD4320) | IC50, cell viability 72 h (Alisertib) | IC50, cell viability 72 h (Etoposide) | IC50, cell viability 72 h (Gefitinib) | IC50, cell viability 72 h (Prexasertib) | IC50, cell viability 72 h (Doxorubicin) | IC50, cell viability 72 h (AZD5153) | IC50, cell viability 72 h (Lapatinib) | IC50, cell viability 72 h (AZD8186) | IC50, cell viability 72 h (Crizotinib) | IC50, cell viability 72 h (Savolitinib) | IC50, cell viability 72 h (AZD6738) | IC50, cell viability 72 h (AZD5991) | IC50, cell viability 72 h (AZD7648) | IC50, cell viability 72 h (Taselisib) | IC50, cell viability 72 h (Selumetinib) | IC50, cell viability 72 h (SRA737) | IC50, cell viability 72 h (MK-2206) | IC50, cell viability 72 h (Gemcitabine) | IC50, cell viability 72 h [1] | IC50, cell viability 72 h (Olaparib) | IC50, cell viability 72 h (5-Fluorouracil)
A673 (Ewing's Sarcoma) | > 10000 nM | > 10000 nM | > 3000 nM | > 1000 nM | 6.99 nM | > 10000 nM | > 300 nM | > 1000 nM | > 2000 nM | > 1 nM | 132 nM | 2.59 nM | > 3000 nM | 169 nM | 1460 nM | 2270 nM | > 10000 nM | 34.4 nM | 284 nM | > 1000 nM | > 10000 nM | > 10000 nM | > 10000 nM | > 1000 nM | 1980 nM | > 1000 nM | > 10000 nM | 6720 nM | > 10000 nM | > 10000 nM | > 10000 nM | 17.8 nM | > 5000 nM | > 10000 nM | > 20000 nM
BE-13 (T-Lymphoblastic Leukemia) | > 10000 nM | > 10000 nM | 161 nM | > 1000 nM | 14.1 nM | 3380 nM | > 300 nM | > 1000 nM | 809 nM | > 1 nM | 44.1 nM | 16.8 nM | > 3000 nM | 99.9 nM | 155 nM | 2340 nM | > 10000 nM | 20.1 nM | 326 nM | 312 nM | 8670 nM | > 10000 nM | 585 nM | > 1000 nM | 4780 nM | > 1000 nM | > 10000 nM | > 10000 nM | > 10000 nM | 3730 nM | 7600 nM | 89.9 nM | > 5000 nM | > 10000 nM | > 20000 nM
